Test [1] relates to HIF2α-regulated expression of the endogenous target gene hEGLN3 in 786-O cells. The experiment in a line: Cellular iScript assay for HIF2α (quantitative RT-PCR of hEGLN3). The format is cell-based, human. The note with it: Homo sapiens, 786-0, 48 hours incubation. An outline of the steps:
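786-O cells were exposed to eleven 2-fold compound dilutions for 48 h at 37° C. Lysates underwent one-step TaqMan qRT-PCR for hEGLN3 with beta-actin as reference; 2^(−ΔΔCt) versus DMSO, as % of control, was fit with a four-parameter model to give IC50.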

Test [2] deals with HIF2α PAS-B domain (236-350, biotinylated on the N-terminus) (Homo sapiens (Human), UniProt Q99814).
Procedure: The assay buffer contained 50 mM Tris-HCl pH7 (Sigma), 20 mM NaCl (Fluka), 0.02% BSA (Sigma), 0.005% Triton X-100 (Pierce) and 1 mM DTT (Fluka). After a 30 min incubation period, 5 μL Streptavidin PVT SPA Beads (Perkin Elmer) at 1.2 mg/mL, diluted in the buffer, were added.

SMILES strings stand for the structures.

Sequence of HIF2α PAS-B domain (236-350, biotinylated on the N-terminus) (Q99814 236-350): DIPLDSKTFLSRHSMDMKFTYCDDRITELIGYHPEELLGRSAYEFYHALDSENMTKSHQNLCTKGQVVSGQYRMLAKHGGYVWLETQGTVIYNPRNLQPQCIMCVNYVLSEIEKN

For the compound `FC(F)OC1=CC(C(F)(F)F)=CN2C[C@@]3(CCC(F)(F)c4c3ccnc4Cl)N=C12` [Example 31, (S)-1′-chloro-8-(difluoromethoxy)-8′,8′-difluoro-6-(trifluoromethyl)-7′,8′-dihydro-3H,6′H-spiro[imidazo[1,2-a]pyridine-2,5′-isoquinoline]], the results for the half-inhibitory concentration (IC50) in test [1] and in test [2] were 37 nM and 9 nM, respectively.

As to `FC(F)OC1=CC(C(F)(F)F)=CN2C[C@@]3(CCOc4cc(C(F)(F)F)ccc43)N=C12` [Example 44, (S)-8′-(difluoromethoxy)-6′,7-bis(trifluoromethyl)-3′H-spiro[chroman-4,2′-imidazo[1,2-a]pyridine]], the IC50 (commonly the concentration that gives 50% inhibition) in test [1] is 65 nM; in test [2], 13 nM.

The values above are taken from patent US12226405B2, “Compounds and compositions for inhibiting the activity of HIF2-alpha and their methods of use” (Novartis AG, priority 2020, dated 2025).
